In ChEMBL document CHEMBL5126579, “Design and synthesis of efficient fluororethylene-peptidomimetic inhibitors of dipeptidyl peptidase III (DPP3)” (Bioorg Med Chem, 2022):

Tests used:
Dipeptidyl peptidase 3 [1] = target: T1, Dipeptidyl peptidase 3 (Homo sapiens, UniProt Q9NY33); assay: Competitive inhibition of DPP3 (unknown origin) using Arg-Arg-2-naphthylamide as substrate
T1 sequence (Q9NY33 whole entry): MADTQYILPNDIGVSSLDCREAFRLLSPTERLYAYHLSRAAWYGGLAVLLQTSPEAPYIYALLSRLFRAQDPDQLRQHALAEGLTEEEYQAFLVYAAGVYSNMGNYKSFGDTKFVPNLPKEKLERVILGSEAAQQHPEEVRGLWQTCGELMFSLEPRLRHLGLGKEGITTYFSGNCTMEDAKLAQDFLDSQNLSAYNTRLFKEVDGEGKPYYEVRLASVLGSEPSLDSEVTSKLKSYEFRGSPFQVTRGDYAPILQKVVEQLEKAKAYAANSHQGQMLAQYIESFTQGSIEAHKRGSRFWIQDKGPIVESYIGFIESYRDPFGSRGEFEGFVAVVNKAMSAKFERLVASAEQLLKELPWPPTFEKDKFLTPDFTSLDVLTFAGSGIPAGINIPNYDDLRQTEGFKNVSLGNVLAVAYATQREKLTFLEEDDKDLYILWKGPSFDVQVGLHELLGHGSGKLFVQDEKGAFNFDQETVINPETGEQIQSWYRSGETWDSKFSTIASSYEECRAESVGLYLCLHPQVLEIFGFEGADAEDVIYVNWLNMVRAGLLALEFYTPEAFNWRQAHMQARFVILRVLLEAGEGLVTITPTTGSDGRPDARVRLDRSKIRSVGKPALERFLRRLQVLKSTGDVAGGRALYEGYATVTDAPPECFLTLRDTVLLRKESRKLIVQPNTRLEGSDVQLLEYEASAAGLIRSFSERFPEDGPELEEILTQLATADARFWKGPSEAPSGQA

Dipeptidyl peptidase 3 [2] = target: T1, Dipeptidyl peptidase 3; assay: Inhibition of human DPP3 using Arg-Arg-2-naphthylamide as substrate assessed as reduction in release of 2-naphthylamine preincubated for 10 mins followed by substrate addition and measured for 30 mins by fluorescence based analysis
Dipeptidyl peptidase 3 [3] = target: T1, Dipeptidyl peptidase 3; assay: Inhibition of DPP3 (unknown origin)

IC50 (Dipeptidyl peptidase 3 [2]) [µM]	Compound	other results
–	Cc1cc(=O)c2c(cc(O)c3c4c(O)cccc4c(=O)c32)c1=O	IC50 (Dipeptidyl peptidase 3 [1]): 1.44 µM
21	CC(C)[C@H](NC(=O)[C@@H](N)C(C)(C)C)/C(F)=C/[C@@H](Cc1ccccc1)C(=O)N1CCCC[C@H]1C(=O)N[C@@H](Cc1c[nH]c2ccccc12)C(=O)O	–
4.6	CC(C)[C@H](N)C(=O)N[C@H](/C(F)=N/[C@@H](Cc1ccccc1)C(=O)N1CCC[C@H]1C(=O)N[C@@H](Cc1c[nH]c2ccccc12)C(=O)O)C(C)C	–
7.7	CC(C)[C@H](N)C(=O)N[C@H](/C(F)=C/[C@@H](Cc1ccccc1)C(=O)N1CCCC[C@H]1C(=O)N[C@@H](Cc1c[nH]c2ccccc12)C(=O)O)C(C)C	–
22.5	CC(C)[C@H](NC(=O)[C@@H](N)C(C)(C)C)/C(F)=C/[C@@H](Cc1ccccc1)C(=O)N1CCC[C@H]1C(=O)N[C@@H](Cc1c[nH]c2ccccc12)C(=O)O	–
–	CC1C(=O)c2cc(O)c3c(c2C(O)C1O)C(=O)c1cccc(O)c1-3 (stereo not drawn)	IC50 (Dipeptidyl peptidase 3 [1]): 74 µM
–	CC(C)[C@H](N)C(=O)N[C@@H](C(C)C)[C@H](O)N[C@@H](Cc1ccccc1)C(=O)N1CCC[C@H]1C(=O)N[C@@H](Cc1c[nH]c2ccccc12)C(=O)O	IC50 (Dipeptidyl peptidase 3 [3]): 8.5 µM
–	H-VVFPW-OH	IC50 (Dipeptidyl peptidase 3 [3]): 0.13 µM
